Laboratory results as given in ChEMBL document CHEMBL3525936 (Drug Metab Dispos, 2012).

Assays:
Liver microsome [1] = assay: Drug level in rat liver microsomes assessed as compound formation treated with 2 uM [14C]brivanib alaninate after 60 mins by LC/MS method in presence of 1 mM NADPH; format: ADME; conditions: 1 h
[2] = Drug level in monkey liver microsomes assessed as compound formation treated with 2 uM [14C]brivanib alaninate after 60 mins by LC/MS method in presence of 1 mM NADPH; format: ADME, Macaca mulatta; conditions: rhesus monkey, 1 h
Liver microsome [3] = assay: Drug level in human liver microsomes assessed as compound formation treated with 2 uM [14C]brivanib alaninate after 60 mins by LC/MS method in presence of 1 mM NADPH; format: ADME; conditions: 1 h
Liver microsome [4] = assay: Drug metabolism in rat liver microsomes assessed as 1-(4-(4-fluoro-2-methyl-1H-indol-5-yloxy)-5-methylpyrrolo[1,2-f][1,2,4]triazin-6-yloxy)propan-2-one formation at 2 uM after 60 mins by LC/MS method in presence of 1 mM NADPH; format: ADME
[5] = Drug metabolism in monkey liver microsomes assessed as 1-(4-(4-fluoro-2-methyl-1H-indol-5-yloxy)-5-methylpyrrolo[1,2-f][1,2,4]triazin-6-yloxy)propan-2-one formation at 2 uM after 60 mins by LC/MS method in presence of 1 mM NADPH; format: ADME, Macaca mulatta; conditions: rhesus monkey
Liver microsome [6] = assay: Drug metabolism in human liver microsomes assessed as 1-(4-(4-fluoro-2-methyl-1H-indol-5-yloxy)-5-methylpyrrolo[1,2-f][1,2,4]triazin-6-yloxy)propan-2-one formation at 2 uM after 60 mins by LC/MS method in presence of 1 mM NADPH; format: ADME
Liver microsome [7] = assay: Drug metabolism in rat liver microsomes assessed as 1-(4-(4-fluoro-2-methyl-1H-indol-5-yloxy)-5-methylpyrrolo[1,2-f][1,2,4]triazin-6-yloxy)propan-2-one formation at 2 uM after 60 mins by LC/MS method in absence of NADPH; format: ADME
[8] = Drug metabolism in monkey liver microsomes assessed as 1-(4-(4-fluoro-2-methyl-1H-indol-5-yloxy)-5-methylpyrrolo[1,2-f][1,2,4]triazin-6-yloxy)propan-2-one formation at 2 uM after 60 mins by LC/MS method in absence of NADPH; format: ADME, Macaca mulatta; conditions: rhesus monkey
Liver microsome [9] = assay: Drug metabolism in human liver microsomes assessed as 1-(4-(4-fluoro-2-methyl-1H-indol-5-yloxy)-5-methylpyrrolo[1,2-f][1,2,4]triazin-6-yloxy)propan-2-one formation at 2 uM after 60 mins by LC/MS method in absence of NADPH; format: ADME
[10] = Cmax in Sprague-Dawley rat plasma at 60 mg/kg, po administered as single dose via gavage by LC/MS analysis; format: ADME, organism-based; set-up: dose 60 mg/kg, route oral
[11] = Tmax in Sprague-Dawley rat plasma at 60 mg/kg, po administered as single dose via gavage by LC/MS analysis; format: ADME, organism-based; set-up: dose 60 mg/kg, route oral
[12] = AUC (0 to t) in Sprague-Dawley rat plasma at 60 mg/kg, po administered as single dose via gavage by LC/MS analysis; format: ADME, organism-based; set-up: dose 60 mg/kg, route oral
[13] = Cmax in cynomolgus monkey plasma at 10 mg/kg, po administered as single dose via gavage by LC/MS analysis; format: ADME, organism-based, Macaca fascicularis; set-up: dose 10 mg/kg, route oral
[14] = Tmax in cynomolgus monkey plasma at 10 mg/kg, po administered as single dose via gavage by LC/MS analysis; format: ADME, organism-based, Macaca fascicularis; set-up: dose 10 mg/kg, route oral
[15] = AUC (0 to t) in cynomolgus monkey plasma at 10 mg/kg, po administered as single dose via gavage by LC/MS analysis; format: ADME, organism-based, Macaca fascicularis; set-up: dose 10 mg/kg, route oral
[16] = Cmax in healthy human plasma at 400 mg, po administered as single dose via gavage by LC/MS analysis; format: ADME, organism-based; set-up: dose 400 mg, route oral
[17] = Tmax in healthy human plasma at 400 mg, po administered as single dose via gavage by LC/MS analysis; format: ADME, organism-based
[18] = AUC (0 to t) in healthy human plasma at 400 mg, po administered as single dose via gavage by LC/MS analysis; format: ADME, organism-based
Liver cytosol [19] = assay: Drug metabolism in human liver cytosol assessed as sulfate metabolite formation by Michaelis-Menten equation […]; format: ADME
HUVEC [20] = assay: Inhibition of VEGF-stimulated HUVEC cell proliferation assessed as 5-bromo-2-deoxyuridine incorporation; format: functional, cell-based; conditions: Homo sapiens
HUVEC [21] = assay: Inhibition of FGF-stimulated HUVEC cell proliferation assessed as 5-bromo-2-deoxyuridine incorporation; format: functional, cell-based; conditions: Homo sapiens
HUVEC [22] = assay: Inhibition of VEGF/FGF-stimulated HUVEC cell proliferation assessed as 5-bromo-2-deoxyuridine incorporation; format: functional, cell-based; conditions: Homo sapiens
Liver cytosol [23] = assay: Drug metabolism in rat liver cytosol assessed as sulfate metabolite formation by Michaelis-Menten equation […]; format: ADME
[24] = Drug metabolism in monkey liver cytosol assessed as sulfate metabolite formation by Michaelis-Menten equation […]; format: ADME, Macaca mulatta; conditions: rhesus monkey
[25] = Drug metabolism in monkey liver microsomes assessed as (R)-1-(4-(4-fluoro-2-methyl-1H-indol-5-yloxy)-5-methylpyrrolo[1,2-f][1,2,4]triazin-6-yloxy)propan-2-ol formation at 10 uM after 60 mins by LC/MS analysis in absence of NADPH; format: ADME, Macaca mulatta; conditions: rhesus monkey
Liver microsome [26] = assay: Drug metabolism in human liver microsomes assessed as (R)-1-(4-(4-fluoro-2-methyl-1H-indol-5-yloxy)-5-methylpyrrolo[1,2-f][1,2,4]triazin-6-yloxy)propan-2-ol formation at 10 uM after 60 mins by LC/MS analysis in absence of NADPH; format: ADME
Liver microsome [27] = assay: Drug metabolism in rat liver microsomes assessed as (R)-1-(4-(4-fluoro-2-methyl-1H-indol-5-yloxy)-5-methylpyrrolo[1,2-f][1,2,4]triazin-6-yloxy)propan-2-ol formation at 10 uM after 60 mins by LC/MS analysis in absence of NADPH; format: ADME

CC(=O)COc1cn2ncnc(Oc3ccc4[nH]c(C)cc4c3F)c2c1C
Drug metabolism (Liver microsome [1]): metabolite_detected
Drug metabolism [2]: metabolite_detected
Drug metabolism (Liver microsome [3]): metabolite_detected

Cc1cc2c(F)c(Oc3n[14cH]nn4cc(OC[C@@H](C)OC(=O)[C@H](C)N)c(C)c34)ccc2[nH]1
Drug metabolism (Liver microsome [4]): metabolite_detected
Drug metabolism [5]: metabolite_detected
Drug metabolism (Liver microsome [6]): metabolite_detected
Drug metabolism (Liver microsome [7]): metabolite_not_detected
Drug metabolism [8]: metabolite_not_detected
Drug metabolism (Liver microsome [9]): metabolite_not_detected

Cc1cc2c(F)c(Oc3ncnn4cc(OC[C@@H](C)O)c(C)c34)ccc2[nH]1 [BRIVANIB]
Cmax [10]: 3500 ng/mL
Tmax [11]: 1 h
AUC(0-t) [12]: 7600 ng·h/mL
Cmax [13]: 1400 ng/mL
Tmax [14]: 1 h
AUC(0-t) [15]: 6800 ng·h/mL
Cmax [16]: 3500 ng/mL
Tmax [17]: 2 h
AUC(0-t) [18]: 21800 ng·h/mL
Km (Liver cytosol [19]): 0.7 µM
IC50 (HUVEC [20]): 618 nM
IC50 (HUVEC [21]): 695 nM
IC50 (HUVEC [22]): 841 nM
Km (Liver cytosol [23]): 0.7 µM
Km [24]: 0.7 µM

Cc1c(OC[C@@H](C)O)cn2ncnc(Oc3ccc4[nH]c(C(=O)O)cc4c3F)c12
Drug metabolism (Liver microsome [1]): metabolite_detected
Drug metabolism [2]: metabolite_detected
Drug metabolism (Liver microsome [3]): metabolite_detected

Cc1c(OC[C@@H](C)O)cn2ncnc(Oc3ccc4[nH]c(CO)cc4c3F)c12
Drug metabolism (Liver microsome [1]): metabolite_detected
Drug metabolism [2]: metabolite_detected
Drug metabolism (Liver microsome [3]): metabolite_detected

Cc1cc2c(F)c(Oc3ncnn4cc(OC[C@H](C)O)c(C)c34)ccc2[nH]1
Drug metabolism [25]: metabolite_not_detected
Drug metabolism (Liver microsome [26]): metabolite_not_detected
Drug metabolism (Liver microsome [27]): metabolite_not_detected
Km (Liver cytosol [19]): 0.7 µM
IC50 (HUVEC [20]): 687 nM
IC50 (HUVEC [21]): 1010 nM
IC50 (HUVEC [22]): 807 nM
Km (Liver cytosol [23]): 0.7 µM
Km [24]: 0.7 µM
